According to US9068343B2, “Construction element” (Termite Solutions Victoria Pty Ltd., priority 2010, dated 2015):

How the values were obtained:
[1] = Thermogravimetric study of the stability of bifenthrin (thermal balance); type: physicochemical; settings: thermogravimetric study using a thermal balance; threshold temperature of decomposition
Description: In order to determine whether extrusion-based masterbatch preparation was possible without excessive thermal decomposition or volatilization of bifenthrin, a thermogravimetric study was performed using a thermal balance.

[2] = Evaporative loss of active during extrusion-based masterbatch preparation; type: physicochemical; settings: 10% bifenthrin melt mixed into EVA-LLDPE-silicate carrier resin, masterbatch pellets
Description: A masterbatch polymeric carrier resin was prepared by melt mixing bifenthrin (10% wt. percentage), low melting EVA polymer and either a high melt index linear low density polyethylene (LLDPE) or low density polyethylene (LDE).
In this way, 10% of the active bifenthrin was incorporated into an EVA-LLDPE-silicate carrier resin and masterbatch pellets produced.

## Cc1c(COC(=O)[C@@H]2[C@H](/C=C(\Cl)C(F)(F)F)C2(C)C)cccc1-c1ccccc1 (racemic) [bifenthrin]
[1]
  temperature at which degradation of the active occurs: about 180 °C
[2]
  evaporative losses of the active: no measurable evaporative losses
